Data published in patent US4256729A, “N,N'-Bis-(2,3-dihydroxypr opyl)-2,4,6-triiodo-5-(2-keto-L-gulonamido)isophthalamide and radiological compositions containing same” (Mallinckrodt, Inc., priority 1979, dated 1981).
Where two headings read alike, the source gives them in different places.

How the values were obtained:
[1] = tested on: Sprague Dawley rats; assay: Acute Intracisternal Toxicity in Rats; conditions: intracisternal, 444 mg I/ml; two day observation; 95% limits 582-951
Procedure: (§1) The following pharmacological studies were conducted on N,N'-bis-(2,3-dihydroxypropyl)-2,4,6-triiodo-5-(2-keto-L-gulonamido)isophthalamide prepared by Method II (PRODUCT).
(§2) The technique described by Melartin et al. (Invest. Radiol. 5: 13-21, 1970) was utilized to evaluate lethal effects of a solution of the PRODUCT after injection into cerebrospinal fluid at the cisterna magna. Young adult male and female Sprague Dawley rats were used. After dosing, the animals were housed individually and observed for immediate reactions and periodically for a two day observation period.

[2] = in vivo; conditions: rat, in vivo
Procedure: as §1, §2

[3] = tested on: cardiovascular and renal excretory systems; assay: Radiographic observations in mouse (whole body radiographs after i.v. injection); assay type: in vivo; conditions: male mouse, pentobarbital anesthetized; 10,000 mg I/kg i.v. (28% I solution), 1/2 ml/minute; immediately after administration; Method I product
Procedure: A male mouse (20 g) was anesthetized with sodium pentobarbital (60 mg/kg, i.p.; Diabutal®, Diamond Laboratories).

[4] = Stability in aqueous solution by tlc and lc analysis; assay type: physicochemical; conditions: Method I product
Procedure: (§3) The product was dissolved in water (sterile water for injection, 1 liter). The solution was evaporated to about 800 ml under reduced pressure at 55° and treated with active charcoal (Darco G-60, 7.0 g) at room temperature overnight. The solution was filtered (first through a Whatman #4 filter paper and then through a Millipore 0.22 μ filter paper), and the clear filtrate was evaporated under reduced pressure at 50°-60° to give a white glassy solid. The product, which was dried under vacuum at 50°-60° for 5 hours, weighed 53.0 g (60% yield). The compound softens at 190°-195° and decomposes above 220°. […] Nmr and ir data are consistent with the assigned structure IX. Elemental analysis: Calcd. for C20 H26 I3 N3 O12 : C, 27.26; H, 2.97; I, 43.21; N, 4.77; Found: C, 26.92; H, 3.15; I, 42.92; N, 4.40.

[5] = Solubility in water; assay type: physicochemical
Procedure: as §3
2. Solubility: ≥100% w/v.

[6] = tested on: dogs; assay: Acute intracisternal Neurotoxicity in Dogs; assay type: in vivo; conditions: dosage range 200-244 mg I/kg, constant 0.5 ml/kg volume dose
Procedure: Adult dogs of either sex were employed for this procedure and were briefly anesthetized with thiopentol sodium during the injection of a solution of the compound. The PRODUCT was administered into cerebrospinal fluid at the cisterna magna at varying concentrations but at a constant 0.5 ml/kg volume dose. Animals were thereafter observed for neurotoxicity with the following results.

[7] = tested on: Swiss mice; assay: Acute Intraveneous Toxicity in Mice; conditions: i.v., 1 ml/min, 400 mg I/ml; seven day observation; 95% limits 18,161-20,510
Procedure: as §1
(§4) A solution of the PRODUCT was injected into the lateral tail vein of young adult male and female Swiss mice at a rate of 1 ml/min.

[8] = in vivo; conditions: mouse, in vivo, iv
Procedure: as §1, §4

[9] = tested on: Swiss mice; assay: Acute Intracerebral Toxicity in Mice; conditions: intracerebral, 250-400 mg I/ml; seven day observation; 95% limits 1,203-1,772
Procedure: as §1
(§5) Employing a slightly modified version of the techique developed by Haley and McCormick (Brit. J. Pharmacol. 12: 12-15, 1957), young adult male and female Swiss mice received injections of a solution of the PRODUCT directly into lateral ventricles and brain tissue.

[10] = in vivo; conditions: mouse, in vivo, icv or intrathecal
Procedure: as §1, §5

[11] = tested on: cisterna magna, basal cisterns, and cervical subarachnoid space; assay: Radiographic observations in rat (lateral radiographs of head and thorax after intracisternal injection); assay type: in vivo; conditions: male rat, pentobarbital anesthetized; 140 mg I/kg intracisternally (28% I solution); immediately and 3 minutes after administration; Method I product
Procedure: A pentobarbital anesthetized male rat received 140 mg I/kg of the N,N'-bis-(2,3-dihydroxypropyl)-2,4,6-triiodo-5-(2-keto-L-gulonamido)isophthalamide prepared by Method I, (28% I solution) intracisternally.

With O=C(Nc1c(I)c(C(=O)NCC(O)CO)c(I)c(C(=O)NCC(O)CO)c1I)C(=O)[C@@H](O)[C@H](O)[C@@H](O)CO (stereo partly drawn) [IX, N,N'-Bis-(2,3-dihydroxypropyl)-2,4,6-triiodo-5-(2-keto-L-gulonamido)isophthalamide] the “LD50 /(95% Confidence Limits)” value [1] was 744 mg I/kg, the LD50 at 48 h [2] was 1720 mg/kg and the “opacification on whole body radiographs” value [3] was “opacification of the cardiovascular and renal excretory systems”. For the same compound, the “stability in aqueous solution” value [4] was “stable in aqueous solution”, the solubility ([5]; Method II product) was ≥ 100 % w/v and the solubility ([5]; water, Method I product, read-out: solubility in water) was ≥ 1000 mg/mL. For the same compound, the “Minimum Convulsion Dose” value [6] was > 244 mg I/kg, the “LD50 /(95% Confidence Limits)” value [7] was 19,300 mg I/kg and the LD50 at 168 h [8] was 44700 mg/kg. For the same compound, the “LD50 /(95% Confidence Limits)” value [9] was 1,460 mg I/kg, the LD50 at 168 h [10] was 3380 mg/kg and the “visualization on lateral radiographs of head and thorax” value [11] was “good visualization of the cisterna magna, basal cisterns, and cervical subarachnoid space”.
